Experimental findings from patent US12509424B2, “Compound and composition as PDGF receptor kinase inhibitor” (NIPPON SHINYAKU CO., LTD., priority 2019, dated 2025) are described below.

One test addresses PDGFR-β (Homo sapiens (Human), UniProt P09619). As to the kind of experiment: PDGFR-β tyrosine kinase inhibitory action (HTRF KinEASE-TK). Format: biochemical. The following applies: PDGFR-β enzyme 1 ng/μL, 30° C. for 30 minutes; read-out: PDGF-β IC50. Here is the method:
(§1) 1. Preparation of Test Substance
This DMSO solution was diluted by 8 times with an assay buffer 1 (50 mM HEPES (pH 7.0), 0.02% NaN3, 0.01% Bovine Serum Albumin, 0.1 mM orthovanadate, 1 mM Dithiothreitol, 5 mM MgCl2, and 1 mM MnCl2) and further diluted by 5 times with an assay buffer 2 (50 mM HEPES (pH 7.0), 0.02% NaN3, 0.01% Bovine Serum Albumin, 0.1 mM orthovanadate, 1 mM Dithiothreitol, 5 mM MgCl2, 1 mM MnCl2, and 40 nM Supplemented Enzymatic Buffer (cisbio)).
2. Measurement of PDGFR-β Tyrosine Kinase Inhibitory Action
For the measurement, the HTRF KinEASE-TK kit from Cisbio Bioassays SAS was used. To a 384 well plate, the test substance solution was added at 4 μL each, then 2 μL of a PDGFR-β enzyme solution (final concentration of 1 ng/μL, Carna Biosciences, Inc.) and 4 μL of a substrate solution obtained by adding 0.6 μM ATP to TK substrate-3-biotin (cisbio) were added, and the solution was allowed to react at 30° C. for 30 minutes at a final concentration of the test substance being 0.01 to 10,000 nM.
Thereafter, 10 μL of a detection solution (cisbio) was added to each well and allowed to react at 30° C. for 1 hour. The fluorescence intensity was measured with a microplate reader (Spectra Max M5, Molecular device).
(§2) 3. Analysis of Measurement Results
In general terms: In TR-FRET formats the signal depends on donor and acceptor labels being close together.

For test [1], the system named is pulmonary arterial smooth muscle cells. As to the kind of experiment: Suppression of proliferation of pulmonary arterial smooth muscle cells (PDGF-BB stimulation, BrdU). Format: cell-based. The following applies: PASMC, 24 h; healthy human derived pulmonary arterial smooth muscle cells; human PDGF-BB 10 ng/mL stimulation; BrdU uptake after 1 day; test substance final concentration 3 to 10,000 nM; read-out: Human normal PASMC proliferation suppression (PDGF stimulation_IC50). How it is done:
as §1
Furthermore, it was diluted by 50 times with distilled water.
2. Measurement of Suppression Action Against Proliferation of Pulmonary Arterial Smooth Muscle Cells
The day after healthy human derived pulmonary arterial smooth muscle cells were seeded onto a 96 well plate using a smooth muscle cell proliferation medium, the proliferation medium was replaced with a 0.1% FBS medium, and the cells were cultured for an additional day. A test substance solution was diluted by 10 times with a medium containing BrdU and human PDGF-BB (final concentration of 10 ng/mL, Sigma-Aldrich) and added to cells in equal amounts so as to reach a final concentration of 3 to 10,000 nM. Also, to the human PDGF-BB negative control, BrdU and 0.1% DMSO solution were added. After culturing for 1 day, the amount of BrdU taken up by the proliferating cells was measured using an anti-BrdU antibody.
as §2

Chain of PDGFR-β (P09619 33-1106): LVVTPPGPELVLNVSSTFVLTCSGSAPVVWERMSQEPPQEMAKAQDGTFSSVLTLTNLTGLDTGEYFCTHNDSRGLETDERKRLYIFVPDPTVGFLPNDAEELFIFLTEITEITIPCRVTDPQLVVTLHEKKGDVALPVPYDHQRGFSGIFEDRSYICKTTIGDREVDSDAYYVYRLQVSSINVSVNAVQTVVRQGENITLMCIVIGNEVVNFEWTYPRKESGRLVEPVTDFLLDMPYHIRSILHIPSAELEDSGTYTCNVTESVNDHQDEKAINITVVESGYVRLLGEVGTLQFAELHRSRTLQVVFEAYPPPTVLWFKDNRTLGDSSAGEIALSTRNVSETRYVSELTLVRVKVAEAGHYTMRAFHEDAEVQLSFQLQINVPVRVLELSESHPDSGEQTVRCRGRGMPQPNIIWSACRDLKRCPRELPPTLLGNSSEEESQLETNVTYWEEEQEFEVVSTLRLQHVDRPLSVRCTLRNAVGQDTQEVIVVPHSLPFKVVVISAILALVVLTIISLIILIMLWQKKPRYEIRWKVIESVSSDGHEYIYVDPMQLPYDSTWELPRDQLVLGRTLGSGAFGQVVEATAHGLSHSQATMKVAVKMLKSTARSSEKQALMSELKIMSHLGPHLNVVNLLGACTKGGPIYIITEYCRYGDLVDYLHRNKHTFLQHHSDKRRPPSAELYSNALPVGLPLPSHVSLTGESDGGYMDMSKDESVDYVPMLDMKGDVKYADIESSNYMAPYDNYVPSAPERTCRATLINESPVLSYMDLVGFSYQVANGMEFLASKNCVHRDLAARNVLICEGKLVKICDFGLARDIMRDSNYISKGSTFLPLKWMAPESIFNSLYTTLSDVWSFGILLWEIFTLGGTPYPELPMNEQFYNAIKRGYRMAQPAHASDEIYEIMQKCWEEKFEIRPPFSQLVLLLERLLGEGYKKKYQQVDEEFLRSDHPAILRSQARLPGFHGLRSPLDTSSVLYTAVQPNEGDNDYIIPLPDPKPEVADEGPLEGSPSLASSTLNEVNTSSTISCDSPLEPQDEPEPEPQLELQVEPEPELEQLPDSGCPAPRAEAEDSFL

Regarding `Cc1ccc(C(=O)N[C@H]2CCCC[C@@H]2O)cc1NCc1ccc(NC2CCC2)nc1` [Example 130, 3-({[6-(cyclobutylamino)pyridin-3-yl]methyl}amino)-N-[(1S,2S)-2-hydroxycyclohexyl]-4-methylbenzamide], the results for the IC50 (on PDGFR-β; in test [1]) were 80 nM and 53 nM, respectively.
On the same counts, the results for `O=C(N[C@H]1CCCC[C@@H]1O)c1ccc(F)c(/C=C(\F)c2cncc(-c3ccccn3)c2)c1` [Example 177, 3-[(Z)-2-([2,3′-bipyridin]-5′-yl)-2-fluoroethenyl]-4-fluoro-N-[(1S,2S)-2-hydroxycyclohexyl]benzamide] are 15 nM and 11 nM.
On the same counts, the results for `Cc1ccc(C(=O)N[C@H]2CCCC[C@@H]2O)cc1NCc1cnc(N)cn1` [Example 131, 3-{[(5-aminopyrazin-2-yl)methyl]amino}-N-[(1S,2S)-2-hydroxycyclohexyl]-4-methylbenzamide] are 490 nM and 340 nM.
For `O=C(N[C@H]1CCCC[C@@H]1O)c1ccc(F)c(/C=C(\F)c2cncc(N3CCOCC3)c2)c1` [Example 184, 4-fluoro-3-{(Z)-2-fluoro-2-[5-(morpholin-4-yl)pyridin-3-yl]ethenyl}-N-[(1S,2S)-2-hydroxycyclohexyl]benzamide], in that order: 51 nM and 82 nM.
For the compound `Cc1ncc(C(=O)N[C@H]2CCCC[C@@H]2O)cc1CNc1cncc(C#CC2CC2)c1` [Example 157, 5-({[5-(cyclopropylethynyl)pyridin-3-yl]amino}methyl)-N-[(1S,2S)-2-hydroxycyclohexyl]-6-methylpyridine-3-carboxamide], the IC50 was 180 nM at PDGFR-β and 52 nM in test [1].
On the same counts, the results for `Cc1ncc(C(=O)N[C@H]2CCCC[C@@H]2O)cc1NCc1cnn2ccccc12` [Example 123, N-[(1S,2S)-2-hydroxycyclohexyl]-6-methyl-5-{[(pyrazolo[1,5-a]pyridin-3-yl)methyl]amino}pyridine-3-carboxamide] are 210 nM and 290 nM.
For `O=C(N[C@H]1CCCC[C@@H]1O)c1ccc(Cl)c(NC(=O)c2cnc(CC3CC3)s2)c1` [Example 55, N-(2-chloro-5-{[(1S,2S)-2-hydroxycyclohexyl]carbamoyl}phenyl)-2-(cyclopropylmethyl)-1,3-thiazole-5-carboxamide], in that order: 83 nM and 69 nM.
For `Cc1ccc(C(=O)N[C@H]2CCCC[C@@H]2O)cc1NCc1cnc2cccnn12` [Example 110, N-[(1S,2S)-2-hydroxycyclohexyl]-3-{[(imidazo[1,2-b]pyridazin-3-yl)methyl]amino}-4-methylbenzamide], in that order: 350 nM and 240 nM.
With `Cc1ccc(C(=O)N[C@H]2CCCC[C@@H]2O)cc1C#Cc1cncc(NCC2CC2)n1` [Example 72, 3-({6-[(cyclopropylmethyl)amino]pyrazin-2-yl}ethynyl)-N-[(1S,2S)-2-hydroxycyclohexyl]-4-methylbenzamide], the IC50 on PDGFR-β came out at 10 nM; in test [1], 70 nM.
For `Cc1ccc(C(=O)N[C@H]2CCCC[C@@H]2O)cc1NCc1cnc(N[C@@H]2CCOC2)nc1` [Example 135, N-[(1S,2S)-2-hydroxycyclohexyl]-4-methyl-3-{[(2-{[(3R)-oxolan-3-yl]amino}pyrimidin-5-yl)methyl]amino}benzamide], in that order: 120 nM and 390 nM.
For `Cc1ccc(C(=O)N[C@H]2CCCC[C@@H]2O)cc1NCc1cnc2[nH]ncc2c1` [Example 109, N-[(1S,2S)-2-hydroxycyclohexyl]-4-methyl-3-{[(1H-pyrazolo[3,4-b]pyridin-5-yl)methyl]amino}benzamide], in that order: 46 nM and 170 nM.
Regarding `CNc1ncc2c(Nc3cc(C(=O)N[C@H]4CCCC[C@@H]4O)ccc3C)cccc2n1` [Example 82, N-[(1S,2S)-2-hydroxycyclohexyl]-4-methyl-3-{[2-(methylamino)quinazolin-5-yl]amino}benzamide], the IC50 amounted to 27 nM at PDGFR-β and 72 nM in test [1].
On the same counts, the results for `Cc1ccc(C(=O)N[C@H]2CCCC[C@@H]2O)cc1NCc1ccc(NC(=O)C2CCOC2)nc1` (stereo partly drawn) [Example 139, N-{5-[(5-{[(1S,2S)-2-hydroxycyclohexyl]carbamoyl}-2-methylanilino)methyl]pyridin-2-yl}oxolane-3-carboxamide] are 30 nM and 100 nM.
On the same counts, the results for `Cc1c(F)cc(C(=O)N[C@H]2CCCC[C@@H]2O)cc1NCc1cnc(N)nc1` [Example 143, 3-{[(2-aminopyrimidin-5-yl)methyl]amino}-5-fluoro-N-[(1S,2S)-2-hydroxycyclohexyl]-4-methylbenzamide] are 97 nM and 90 nM.
For `Cc1ccc(C(=O)N[C@H]2CCCC[C@@H]2O)cc1NCc1ccc(-n2cccn2)nc1` [Example 122, N-[(1S,2S)-2-hydroxycyclohexyl]-4-methyl-3-({[6-(1H-pyrazol-1-yl)pyridin-3-yl]methyl}amino)benzamide], in that order: 150 nM and 300 nM.
Consider `Cc1ccc(C(=O)N[C@H]2CCCC[C@@H]2O)cc1NC(=O)c1cncc(Oc2ncccn2)c1` [Example 52, N-(5-{[(1S,2S)-2-hydroxycyclohexyl]carbamoyl}-2-methylphenyl)-5-[(pyrimidin-2-yl)oxy]pyridine-3-carboxamide], for which the IC50 on PDGFR-β was 77 nM; in test [1], 420 nM.
Regarding `COc1ccc(-c2ncc(CNc3cc(C(=O)N[C@H]4CCCC[C@@H]4O)ccc3C)cn2)cc1` [Example 128, N-[(1S,2S)-2-hydroxycyclohexyl]-3-({[2-(4-methoxyphenyl)pyrimidin-5-yl]methyl}amino)-4-methylbenzamide], the IC50 stood at 180 nM on PDGFR-β and 79 nM in test [1].
For `Cc1ccc(C(=O)N[C@H]2CCCC[C@@H]2O)cc1NCc1ccc(NC(=O)C2CC2)nc1` [Example 120, 3-[({6-[(cyclopropanecarbonyl)amino]pyridin-3-yl}methyl)amino]-N-[(1S,2S)-2-hydroxycyclohexyl]-4-methylbenzamide], the IC50 at PDGFR-β was 20 nM; in test [1] it was 34 nM.
On the same counts, the results for `Cc1ccc(C(=O)NCC(O)C(C)(C)C)cc1/C=C(\F)c1cncc(CN2CCN(C)CC2)c1` (stereo not drawn) [Example 201, 3-[(Z)-2-fluoro-2-{5-[(4-methylpiperazin-1-yl)methyl]pyridin-3-yl}ethenyl]-N-(2-hydroxy-3,3-dimethylbutyl)-4-methylbenzamide] are 38 nM and 120 nM.
On the same counts, the results for `O=C(N[C@H]1CCCC[C@@H]1O)c1ccc(F)c(/C=C(\F)c2cncc(NC3CCOCC3)c2)c1` [Example 185, 4-fluoro-3-[(Z)-2-fluoro-2-{5-[(oxan-4-yl)amino]pyridin-3-yl}ethenyl]-N-[(1S,2S)-2-hydroxycyclohexyl]benzamide] are 5.1 nM and 28 nM.
For `Cc1ccc(C(=O)N[C@@H](CO)[C@@H](O)c2ccccc2)cc1C#Cc1cncc(Br)c1` [Example 76, 3-[(5-bromopyridin-3-yl)ethynyl]-N-[(1S,2S)-1,3-dihydroxy-1-phenylpropan-2-yl]-4-methylbenzamide], in that order: 49 nM and 27 nM.
